Consider one compound from patent publication US8445473B2, “Heteroaryl-substituted bicyclic Smac mimetics and the uses thereof” (The Regents of the University of Michigan, priority 2008, dated 2013).

As a reminder, the IC50 is the midpoint of a concentration-inhibition curve. For orientation: AUC(0-inf) means total exposure, with the tail of the curve extrapolated. As a reminder, the Cmax is the highest concentration seen after dosing. For orientation: Tmax means the time at which the peak concentration occurs. By half-life is commonly meant the time in which the quantity being followed falls by half.

Each structure is given as a SMILES string.

The subject of data set [1] is SK-OV-3 ovarian cancer cell line. The data set can be described thus: Cell growth inhibition, WST-8 assay. Type of data set: cell-based. Particulars: Homo sapiens, SK-OV-3, 96 h, 4 days. As for the experimental part: (§1) The effect of the compounds of the present invention on the growth of various cancer cell lines was tested. Cells were seeded in 96-well flat bottom cell culture plates at a density of 3000 cells/well with a tested compound and incubated at 37° C. in an atmosphere of 95% air and 5% CO2 for 4 days. The rate of cell growth inhibition after treatment with different concentrations of the compound was determined using a WST-8 kit (2-(2-methoxy-4-nitrophenyl)-3-(4-nitrophenyl)-5-(2, 4 disulfophenyl)-2H-tetrazolium monosodium salt; Dojindo Molecular Technologies, Inc., Gaithersburg, Md.). WST-8 was added at a final concentration of 10% to each well, and then the plates were incubated at 37° C. for 2-3 hrs. The absorbance of the samples was measured at 450 nm using a ULTRA Tecan Reader (Molecular Device). The concentration of the tested compound that inhibited cell growth by 50% (IC50) was calculated by comparing absorbance in untreated cells and the cells treated with the tested compound.
In general terms: Formazan colour is commonly taken as a measure of viable cells.

The subject of data set [2] is MDA-MB-231 human breast cancer cell line. The data set can be described thus: Cell growth inhibition, WST-8 assay. Type of data set: cell-based. Particulars: MDA-MB-231, 96 h, 4 days. As for the experimental part: as §1
Data set [3] has as its target T1, cIAP1 BIR3 domain (residues 253-363) (Homo sapiens, UniProt Q13490).
T1 construct: The recombinant cIAP1 BIR3 domain (residues 253-363); His-tag
Kind of data set: Fluorescence polarization competitive binding assay to cIAP1 BIR3. Particulars: FP competitive binding, SM5F or SM-F1 as the tracer. As for the experimental part: (§2) In order to test the binding ability of conformationally constrained Smac mimetics to other IAP proteins (cIAP1 and cIAP2) binding assay conditions were developed. The recombinant cIAP1 BIR3 domain (residues 253-363), cIAP2 BIR3 domain (residues 238-349), fused to a His-tag, were used in the binding assays. Competitive binding assays for other IAP proteins are performed similarly as that described for XIAP BIR3.
(§3) In competitive binding experiments using SM5F as the tracer to cIAP-1 BIR3 protein, the tested compound was incubated with cIAP-1 BIR3 protein (10 nM) and SM5F (2 nM) in the assay buffer. In competitive binding experiments using SM5F as the tracer to cIAP-2 BIR3 protein, the tested compound was incubated with cIAP-2 BIR3 protein (25 nM) and SM5F (2 nM) in the assay buffer. All other procedures for cIAP-1 BIR3 and cIAP-2 BIR3 proteins were the same as those used for XIAP BIR3 protein competitive assays.
(§4) In competitive binding experiments using SM-F1 as the tracer to cIAP-1 BIR3 protein, the tested compound was incubated with cIAP-1 BIR3 protein (3 nM) and SM-F1 (1 nM) in the assay buffer. In competitive binding experiments using SM-F1 as the tracer to cIAP-2 BIR3 protein, the tested compound was incubated with cIAP-2 BIR3 protein (5 nM) and SM-F1 (1 nM) in the assay buffer.
(Polarisation of emitted light reports the rotation of a fluorescent probe.)

A short description of data set [4]: Pharmacokinetics in rats following oral administration. Particulars: rat, in vivo, male Sprague-Dawley rats, 25 mg/kg, mean±SD.
In data set [5] the target is XIAP BIR3 protein (Homo sapiens, UniProt P98170). Kind of data set: Fluorescence polarization competitive binding assay to XIAP BIR3. The note with it: FP competitive binding, SM5F or SM-F1 as the tracer.
Description: A sensitive and quantitative in vitro binding assay using the fluorescence polarization (FP) based method was used to determine the binding affinity of Smac mimetics to XIAP protein (Nikolovska-Coleska et al., Anal. Biochem. 332:261-73 (2004)). For this assay, 5-carboxyfluorescein (5-Fam) was coupled to the lysine side chain of the mutated Smac peptide, AbuRPF-K-(5-Fam)-NH2 (termed SM5F). Another fluorescently tagged Smac mimetic (termed SM-F1) with higher affinities than SM5F was also used.
(§5) In competitive binding experiments using SM5F as the tracer to XIAP BIR3 protein, the tested compound was incubated with XIAP BIR3 protein (30 nM) and SM5F (5 nM) in the assay buffer (100 mM potassium phosphate, pH 7.5; 100 μg/ml bovine gamma globulin; 0.02% sodium azide, Invitrogen). Dose-dependent competitive binding FP experiments were carried out with serial dilutions of tested compounds. For each assay, the bound peptide control containing recombinant XIAP BIR3 protein and SM5F (equivalent to 0% inhibition) and free peptide control containing only free SM5F (equivalent to 100% inhibition) will be included. The polarization values were measured after 3 hrs of incubation when the binding reached equilibrium using an ULTRA READER (Tecan U.S. Inc., Research Triangle Park, N.C.). IC50 values, the inhibitor concentration at which 50% of bound peptide is displaced, will be determined from a plot using nonlinear least-squares analysis. Curve fitting will be performed using GRAPHPAD PRISM software (GraphPad Software, Inc., San Diego, Calif.).
as §5, with “using SM-F1” for “using SM5F”, “protein (10” for “protein (30”, “and SM-1F (2” for “and SM5F (5”, “and SM-1F” for “and SM5F”, “free SM-1F” for “free SM5F”
Negative controls containing protein/tracer complex only (equivalent to 0% inhibition), and positive controls containing only free tracers (equivalent to 100% inhibition), were included in each assay plate. FP values were measured as described above. IC50 values were determined by nonlinear regression fitting of the competition curves. The Ki values of competitive inhibitors were calculated using the equation described before (Nikolovska-Coleska et al., Anal. Biochem. 332:261-73 (2004)), based upon the measured IC50 values, the Kd values of the tracer to different proteins, and the concentrations of the proteins and tracers in the competitive assays. Ki values were also calculated using a commonly used equation known in the literature (Huang, X. J. Biomol. Screen. 8:34-38 (2003)).

Data set [6] concerns ovarian cancer SK-OV-3 cell line. The data set can be described thus: Induction of cell death, trypan blue exclusion assay. The class given is cell-based, human. The note with it: SK-OV-3, 48 hours, FIG. 3. As for the experimental part:
(§6) The ability of SM-1238 to induce cell death was tested in the breast cancer MDA-MB-231 and ovarian cancer SK-OV-3 cell lines (FIG. 3). Cells were treated with SM-1238 for 48 hours and cell viability was determined using the trypan blue exclusion assay.

The test system of data set [7] is breast cancer MDA-MB-231 cell line. The data set is described as above. Type of data set: cell-based, human. Particulars: MDA-MB-231, 48 hours, FIG. 3. As for the experimental part: as §6
Data set [8] has as its target T2, cIAP2 BIR3 domain (residues 238-349) (Homo sapiens, UniProt Q13489).
T2 construct: cIAP2 BIR3 domain (residues 238-349); His-tag
Kind of data set: Fluorescence polarization competitive binding assay to cIAP2 BIR3. The note with it: FP competitive binding, SM5F or SM-F1 as the tracer. As for the experimental part: as §2, §3, §4

T2 sequence (Q13489 238-349): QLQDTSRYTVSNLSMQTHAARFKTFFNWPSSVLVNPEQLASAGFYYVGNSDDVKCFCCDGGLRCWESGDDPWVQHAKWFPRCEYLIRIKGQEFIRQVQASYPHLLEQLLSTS
T1 sequence (Q13490 253-363): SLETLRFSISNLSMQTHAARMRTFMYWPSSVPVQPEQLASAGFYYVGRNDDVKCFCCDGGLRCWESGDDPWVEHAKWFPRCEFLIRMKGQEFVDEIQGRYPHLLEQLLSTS
XIAP BIR3 protein, sequence (P98170 241-356 limits assumed): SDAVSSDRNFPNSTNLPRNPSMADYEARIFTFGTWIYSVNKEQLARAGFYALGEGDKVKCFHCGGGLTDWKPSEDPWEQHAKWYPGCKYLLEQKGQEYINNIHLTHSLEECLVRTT

`CN[C@@H](C)C(=O)N[C@H]1CN(C(=O)CC(C)C)CC[C@H]2CC[C@@H](c3nc4c(-c5ccccc5)cccc4[nH]3)N2C1=O` [SM-1238]: the IC50 in data set [1] is < 3000 nM; in data set [2] it was < 3000 nM; in data set [3] it was < 100 nM; in data set [5], < 200 nM; in data set [8], < 100 nM. The AUC(0-inf) in data set [4] (n=3) was 7100 ± 931 ng·h/mL. This compound also showed a Cmax in data set [4] (n=3) of 831 ± 135 ng/mL. Further, in data set [4] (n=3), the Tmax was determined as 2 ± 1.7 h. In addition, the half-life in data set [4] (n=3, read-out: half-life (T½) (converted)) was 3.7 ± 2 h. Moreover, the “induction of cell death” value in data set [6] and in data set [7] was “induced cell death in both cell lines in a concentration-dependant fashion” in each case.
